System: PLC-γ1 and PLC-γ2
Assay: Phosphorylation of PLC-γ1 and PLC-γ2 in mast cells
Assay type: cell-based
Text: To examine the functional similarities with G4G11, the inventors explored the biological effects of C-13 on mast cell activation. […] Similarly to the intrabody G4G11, C-13 inhibited the phosphorylation and FcεRI-induced kinase activity of Btk (FIG. 2A) and the phosphorylation of PLC-γ1 and PLC-γ2, the two PLC-γ isoforms expressed in mast cells (FIGS. 2A, C). PTK Lyn phosphorylates both Syk and Btk giving rise to the complete activation thereof and the subsequent phosphorylation of PLC-γ^18.
• 1) Chemical products and antibodies. A chemical bank of 3000 molecules (a varied subset) was acquired from ChemBridge, Inc. (San Diego, Calif.). Stocks of solutions of small molecules were prepared at a rate of 10 mM in DMSO (dimethylsulphoxide), except for C-13 (methyl 2-{5-[(3-benzyl-4-oxo-2-thioxo-1,3-thiazolidin-5-ylidene)methyl]-2-furyl}benzoate, ChemBridge ID No. 6197026) prepared in DMF (dimethylformamide). […] The binding of G4G11 with Syk was assessed by adding the 9E10 monoclonal antibody conjugated with HRP detecting the amino acid sequence EQKLISEEDLN of human c-myc protein located at the C-terminal end of the scFv fragment. To generate Syk mutants, targeted mutagenesis was used on GST:Syk 6-242 protein and the binding of G4G11 with the mutants was assessed in the presence of 5 μM of C-13. • 3) Cells, culture conditions and functional tests. […]

## COC(=O)c1ccccc1-c1ccc(/C=C2/SC(=S)N(Cc3ccccc3)C2=O)o1 [Molecule C-13, methyl 2-{5-[(3-benzyl-4-oxo-2-thioxo-1,3-thiazolidin-5-ylidene)methyl]-2-furyl}benzoate]
  phosphorylation of PLC-γ1 and PLC-γ2: inhibited

Source: patent US9504676B2, “Molecules inhibiting a metabolic pathway involving the Syk protein tyrosine kinase and method for identifying said molecules” (CENTRE NATIONAL DE LA RECHERCHE SCIENTIFIQUE, priority 2008, dated 2016)
